Calls of active or inactive are those of the source.
Assays:
[1] = cells; type: functional, cell-based
[2] = cells; type: functional, cell-based; remark: listed apart in the source
[3] = target: Genome polyprotein (dengue virus type 2, UniProt P29990); experiment: Dengue-2 NS5 methyltransferase inhibitors, primary screen, biochemical, confirmation dose response (AID 588689); type: functional
[4] = tested on: BJ; experiment: cytotoxicity toward BJ-TERT fibroblasts, dose response, cell-based, RAS-independent, luminescence (AID 1933); type: functional; details: Homo sapiens
[5] = tested on: BJ; experiment: cells; type: functional, cell-based; details: Homo sapiens
[6] = cytotoxicity toward DRD oncogenic fibroblasts, dose response, cell-based, non-viral oncogenic, luminescence (AID 1934); type: functional; details: Homo sapiens
[7] = target: Paired box protein Pax-8 (Homo sapiens, UniProt Q06710); experiment: inhibitors of PAX8-driven TPO luciferase reporter, dose response, RMG-I cells, cherry-pick (AID 687027); type: functional, cell-based;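 further: luciferase reporter driven by Pax8 target thyroperoxidase promoter measured by SteadyGlo luminescence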
Chain of Paired box protein Pax-8 (Q06710 whole entry): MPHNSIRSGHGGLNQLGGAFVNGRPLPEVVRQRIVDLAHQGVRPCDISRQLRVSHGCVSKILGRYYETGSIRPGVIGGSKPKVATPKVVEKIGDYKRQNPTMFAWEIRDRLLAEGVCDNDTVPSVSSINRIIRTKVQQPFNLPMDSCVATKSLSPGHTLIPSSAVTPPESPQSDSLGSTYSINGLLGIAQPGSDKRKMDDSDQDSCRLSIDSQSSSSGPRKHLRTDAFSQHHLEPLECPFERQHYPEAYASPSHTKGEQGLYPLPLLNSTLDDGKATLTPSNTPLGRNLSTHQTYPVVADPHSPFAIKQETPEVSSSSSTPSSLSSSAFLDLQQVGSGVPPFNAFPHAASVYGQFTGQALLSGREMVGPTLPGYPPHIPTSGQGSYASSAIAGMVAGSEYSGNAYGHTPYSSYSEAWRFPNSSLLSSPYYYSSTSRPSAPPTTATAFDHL

[8] = target: Large T antigen (Simian virus 40, UniProt P03070); type: functional, Betapolyomavirus macacae;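 further: Confirmatory-stage PubChem screen for compounds that inhibit SV40 T antigen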
Chain of Large T antigen (P03070 whole entry): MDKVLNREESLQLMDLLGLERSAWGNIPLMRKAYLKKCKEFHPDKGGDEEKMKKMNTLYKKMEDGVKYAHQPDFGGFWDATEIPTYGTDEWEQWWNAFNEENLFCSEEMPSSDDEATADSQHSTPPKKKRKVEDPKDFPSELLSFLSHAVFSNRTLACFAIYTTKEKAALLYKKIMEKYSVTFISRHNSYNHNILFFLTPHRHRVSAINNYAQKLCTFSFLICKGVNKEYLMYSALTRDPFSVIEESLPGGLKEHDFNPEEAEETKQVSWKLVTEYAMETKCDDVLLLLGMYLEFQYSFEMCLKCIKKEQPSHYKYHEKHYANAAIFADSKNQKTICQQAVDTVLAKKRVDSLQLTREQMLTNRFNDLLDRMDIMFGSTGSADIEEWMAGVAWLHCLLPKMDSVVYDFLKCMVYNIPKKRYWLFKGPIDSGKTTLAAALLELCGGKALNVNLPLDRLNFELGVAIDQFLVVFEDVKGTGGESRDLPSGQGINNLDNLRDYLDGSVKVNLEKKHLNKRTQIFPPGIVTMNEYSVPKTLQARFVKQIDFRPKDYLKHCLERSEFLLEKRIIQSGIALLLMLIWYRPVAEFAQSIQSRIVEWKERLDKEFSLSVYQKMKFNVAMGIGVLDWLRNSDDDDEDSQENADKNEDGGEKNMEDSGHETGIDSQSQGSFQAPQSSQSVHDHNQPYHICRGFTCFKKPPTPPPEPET

[9] = target: Luciferin 4-monooxygenase (Photinus pyralis, UniProt P08659); experiment: firefly luciferase enzyme inhibitors, dose response, biochemical, luminescence (AID 1891)
Chain of Luciferin 4-monooxygenase (P08659 whole entry): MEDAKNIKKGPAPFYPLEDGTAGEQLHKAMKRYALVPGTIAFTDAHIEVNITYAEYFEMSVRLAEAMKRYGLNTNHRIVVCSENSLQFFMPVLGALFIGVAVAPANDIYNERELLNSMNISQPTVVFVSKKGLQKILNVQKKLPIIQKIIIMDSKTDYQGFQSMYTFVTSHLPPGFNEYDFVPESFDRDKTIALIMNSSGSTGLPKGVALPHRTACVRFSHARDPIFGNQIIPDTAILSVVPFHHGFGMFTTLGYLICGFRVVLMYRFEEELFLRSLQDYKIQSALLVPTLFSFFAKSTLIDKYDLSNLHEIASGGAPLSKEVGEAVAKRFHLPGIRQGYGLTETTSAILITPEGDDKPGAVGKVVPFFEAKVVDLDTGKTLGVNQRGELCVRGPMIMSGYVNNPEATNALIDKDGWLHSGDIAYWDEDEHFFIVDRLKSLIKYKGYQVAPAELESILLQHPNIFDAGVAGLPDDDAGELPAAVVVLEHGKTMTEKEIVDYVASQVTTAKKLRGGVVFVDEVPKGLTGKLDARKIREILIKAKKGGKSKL

[10] = Luminescence Cell-Based Dose Confirmation HTS to Identify Inhibitors of Platelet Dense Granule Release. [Related pubchem assays: 1663 (Primary HTS), 1678 (Summary of Project)]; type: functional
[11] = target: Glyceraldehyde-3-phosphate dehydrogenase (Homo sapiens, UniProt P04406)
Chain of Glyceraldehyde-3-phosphate dehydrogenase (P04406 whole entry): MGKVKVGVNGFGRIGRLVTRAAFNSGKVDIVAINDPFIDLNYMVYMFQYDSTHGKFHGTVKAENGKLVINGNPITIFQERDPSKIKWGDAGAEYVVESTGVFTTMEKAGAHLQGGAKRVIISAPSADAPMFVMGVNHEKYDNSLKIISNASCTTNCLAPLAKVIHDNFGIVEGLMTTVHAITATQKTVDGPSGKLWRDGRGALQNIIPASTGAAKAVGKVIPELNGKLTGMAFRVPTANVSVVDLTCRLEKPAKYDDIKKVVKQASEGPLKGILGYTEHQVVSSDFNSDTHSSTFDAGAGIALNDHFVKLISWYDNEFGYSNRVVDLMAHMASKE

[12] = HEp-2 cell cytotoxicity, dose response, cytotoxicity control for RSV inhibitor project, HTS (AID 2410); type: functional; details: human respiratory syncytial virus
[13] = inhibitors of firefly luciferase expression or activity, dose response, H4 neuroglioma cells, luminescence (AID 1990); type: functional, cell-based
[14] = Luminescence Cell-Based Dose Response HTS to Identify Inhibitors of 5'UTR Stem-Loop Driven Prion Protein mRNA Translation in H4 Neuroglioblastoma Cells. [Related pubchem assays: 1827 (Project Summary), 1813 (Primary HTS)]; type: functional
[15] = inhibitors of SNCA 5'UTR-driven reporter translation, confirmation, H4 neuroglioma cells, luminescence (AID 1988); type: functional, cell-based
[16] = growth suppression of PTEN-null colon cells, dose response, cell-based, HCT116 PTEN knockout (AID 1047); type: functional;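 further: HCT116 colon tumor cells with PTEN knocked out; cells exposed to compound for 60 hours before readout; potency for loss of cell viability measured by luminescence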
[17] = growth suppression of beta-catenin-knockout colon cells, dose response, cell-based, HCT116, human colon tumor (AID 1045); type: functional;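 further: HCT116 colon tumor cells with beta catenin knocked out; cells exposed to compound for 60 hours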
[18] = target: T1, Ubiquitin-conjugating enzyme E2 N (Homo sapiens, UniProt P61088); type: functional;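 further: Dose-response confirmation in a TR-FRET assay detecting UBC13-driven polyubiquitin chain formation, inhibition measured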
T1 sequence (P61088 whole entry): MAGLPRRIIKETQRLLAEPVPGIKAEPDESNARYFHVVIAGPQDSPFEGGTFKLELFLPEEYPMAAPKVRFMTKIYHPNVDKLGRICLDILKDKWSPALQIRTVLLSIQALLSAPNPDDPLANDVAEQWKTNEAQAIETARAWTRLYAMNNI

[19] = target: Cytochrome P450 3A4 (Homo sapiens, UniProt P08684);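 further: CYP3A4 tested as one member of a cytochrome P450 panel screen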
Chain of Cytochrome P450 3A4 (P08684 whole entry): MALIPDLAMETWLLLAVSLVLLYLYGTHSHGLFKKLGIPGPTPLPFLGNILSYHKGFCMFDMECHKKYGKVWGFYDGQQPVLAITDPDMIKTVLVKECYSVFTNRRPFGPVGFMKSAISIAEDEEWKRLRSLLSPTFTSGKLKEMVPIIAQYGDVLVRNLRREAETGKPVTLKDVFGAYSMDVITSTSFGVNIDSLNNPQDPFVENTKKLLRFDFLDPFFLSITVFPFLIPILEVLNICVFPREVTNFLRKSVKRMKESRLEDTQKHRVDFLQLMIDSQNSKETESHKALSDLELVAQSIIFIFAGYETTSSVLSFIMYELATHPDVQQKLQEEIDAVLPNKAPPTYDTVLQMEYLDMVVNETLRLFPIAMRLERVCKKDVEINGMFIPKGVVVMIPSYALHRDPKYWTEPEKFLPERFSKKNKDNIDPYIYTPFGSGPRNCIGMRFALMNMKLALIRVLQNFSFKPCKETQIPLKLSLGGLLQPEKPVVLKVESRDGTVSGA

[20] = target: T2, Rac GTPase-activating protein 1 (Homo sapiens, UniProt Q9H0H5); experiment: MgcRacGAP GTPase-activating activity inhibitors, confirmation, biochemical, ADP Hunter fluorescence, primary and confirmatory (AID 624330); type: functional
T2 sequence (Q9H0H5 whole entry): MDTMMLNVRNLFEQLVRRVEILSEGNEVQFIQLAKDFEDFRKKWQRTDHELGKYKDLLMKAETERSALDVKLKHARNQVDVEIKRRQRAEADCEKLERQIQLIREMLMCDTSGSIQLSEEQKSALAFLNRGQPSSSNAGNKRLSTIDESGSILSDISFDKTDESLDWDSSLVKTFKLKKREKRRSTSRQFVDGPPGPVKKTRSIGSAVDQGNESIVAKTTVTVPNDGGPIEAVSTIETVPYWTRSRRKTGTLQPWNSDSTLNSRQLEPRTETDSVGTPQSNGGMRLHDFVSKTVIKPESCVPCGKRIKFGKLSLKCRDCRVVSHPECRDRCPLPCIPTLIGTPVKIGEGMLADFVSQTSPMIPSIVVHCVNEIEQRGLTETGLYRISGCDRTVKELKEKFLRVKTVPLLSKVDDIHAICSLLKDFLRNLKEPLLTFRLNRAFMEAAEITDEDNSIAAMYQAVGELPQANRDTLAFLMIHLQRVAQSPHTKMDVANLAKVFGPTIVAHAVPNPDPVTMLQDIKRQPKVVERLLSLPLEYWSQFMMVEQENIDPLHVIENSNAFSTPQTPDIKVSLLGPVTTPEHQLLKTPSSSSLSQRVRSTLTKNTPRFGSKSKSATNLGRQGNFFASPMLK

[21] = tested on: Streptococcus sp. 'group A'; experiment: growth inhibition of control SK(-) GAS strain, dose response, counter-screen for streptokinase expression inhibitor project, luminescence, kanamycin, BacTiterGlo, confirmation (AID 1900); type: functional, organism-based
[22] = target: T3, Streptokinase A (Streptococcus pyogenes serotype M1, UniProt P10520); experiment: S. pyogenes streptokinase expression inhibitors, potency, dose response, plasminogen activation absorbance, OD405 (AID 1914); type: functional, Streptococcus pyogenes M1 GAS;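 further: secreted streptokinase activity via plasminogen activation per viability signal from cell pellet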
T3 sequence (P10520 whole entry): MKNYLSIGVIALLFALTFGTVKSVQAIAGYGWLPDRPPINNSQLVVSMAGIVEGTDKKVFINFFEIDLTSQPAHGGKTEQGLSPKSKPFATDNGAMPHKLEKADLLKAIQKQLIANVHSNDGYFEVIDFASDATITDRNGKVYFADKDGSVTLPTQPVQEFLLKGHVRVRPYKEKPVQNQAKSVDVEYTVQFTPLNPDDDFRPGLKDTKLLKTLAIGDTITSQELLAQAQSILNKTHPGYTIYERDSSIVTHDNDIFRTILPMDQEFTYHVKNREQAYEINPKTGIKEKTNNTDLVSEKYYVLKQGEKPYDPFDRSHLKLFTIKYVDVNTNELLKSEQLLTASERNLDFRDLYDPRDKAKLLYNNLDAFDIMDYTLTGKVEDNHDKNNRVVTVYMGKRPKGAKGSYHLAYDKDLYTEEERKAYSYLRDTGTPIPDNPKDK

[23] = tested on: Streptococcus; experiment: Group A Streptococcus viability loss, dose response, counter-screen for streptokinase expression inhibitor project, luminescence, BacTiterGlo (AID 1915); type: functional, organism-based;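 further: potency for reduction of bacterial viability or growth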
[24] = Shn3 3'UTR reporter inhibitors, dose response, cell-based, Clone20 osteoblasts, firefly luciferase, cherry-picked (AID 624132); type: functional;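 further: firefly luciferase luminescence from reporter carrying the Shn3 3'UTR in osteoblasts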
[25] = HepG2 cell cytotoxicity, dose response, cytotoxicity control for Shn3 inhibitor project, CellTiter-Glo, cherry-picked (AID 624134); type: functional, cell-based
[26] = control 3'UTR Renilla luciferase suppression, dose response, counter-screen for Shn3 inhibitor project, cell-based, Clone20-Shn3RL, cherry-picked (AID 624133); type: functional
[27] = target: FAD-linked sulfhydryl oxidase ALR (Homo sapiens, UniProt P55789); experiment: inhibitors of human ALR sulfhydryl oxidase, dose response, biochemical, H2O2 detection, luminescence, cherry-pick (AID 493248)
Chain of FAD-linked sulfhydryl oxidase ALR (P55789 whole entry): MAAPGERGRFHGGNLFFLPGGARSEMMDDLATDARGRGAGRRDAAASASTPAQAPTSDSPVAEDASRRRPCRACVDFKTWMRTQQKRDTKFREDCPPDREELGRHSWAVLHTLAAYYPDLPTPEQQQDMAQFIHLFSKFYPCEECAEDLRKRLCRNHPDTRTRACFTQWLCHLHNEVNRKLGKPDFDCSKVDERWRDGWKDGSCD

Chain of Genome polyprotein (P29990 2492-3391 limits assumed): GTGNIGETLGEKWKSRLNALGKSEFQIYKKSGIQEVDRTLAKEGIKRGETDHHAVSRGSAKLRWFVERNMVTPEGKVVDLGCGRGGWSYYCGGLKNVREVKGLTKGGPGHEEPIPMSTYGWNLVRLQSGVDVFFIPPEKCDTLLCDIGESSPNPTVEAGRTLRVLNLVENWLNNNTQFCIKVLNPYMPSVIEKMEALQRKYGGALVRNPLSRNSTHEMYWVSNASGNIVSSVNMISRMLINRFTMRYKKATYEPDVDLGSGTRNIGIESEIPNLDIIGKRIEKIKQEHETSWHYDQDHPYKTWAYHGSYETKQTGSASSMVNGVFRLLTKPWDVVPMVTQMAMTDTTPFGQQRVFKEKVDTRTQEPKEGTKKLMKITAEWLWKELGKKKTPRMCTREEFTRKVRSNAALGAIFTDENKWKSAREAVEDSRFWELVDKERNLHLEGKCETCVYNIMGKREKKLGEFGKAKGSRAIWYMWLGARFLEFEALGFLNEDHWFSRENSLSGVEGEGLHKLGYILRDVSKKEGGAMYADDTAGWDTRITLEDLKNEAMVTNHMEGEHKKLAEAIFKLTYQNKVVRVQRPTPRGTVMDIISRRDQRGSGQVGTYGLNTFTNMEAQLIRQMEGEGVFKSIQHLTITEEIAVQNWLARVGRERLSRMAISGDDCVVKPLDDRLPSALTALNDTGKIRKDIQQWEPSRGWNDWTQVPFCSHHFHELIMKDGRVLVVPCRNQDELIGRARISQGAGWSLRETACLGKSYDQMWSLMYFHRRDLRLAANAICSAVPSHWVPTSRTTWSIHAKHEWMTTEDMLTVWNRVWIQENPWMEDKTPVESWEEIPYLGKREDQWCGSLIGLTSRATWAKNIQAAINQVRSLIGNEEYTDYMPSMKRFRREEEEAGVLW

In the case of `CC(C)NC(=O)NC(=O)CSc1nnc(-c2ccccc2F)n1N`, the EC50 [1] is reported as > 350 µM (not active) and the EC50 [2] is reported as > 350 µM (not active).
With `COc1cccc(/C=C2\SC(=S)N(C(Cc3ccccc3)C(=O)O)C2=O)c1` (centres undefined) the IC50 [3] was 44.4 µM (active).
With `COc1ccc(C(=O)NN(C)c2nc(C(F)(F)F)nc3ccccc23)cc1` the EC50 [4] was < 0.12 µM (active), the EC50 [5] was 0.45 µM (active) and the EC50 [6] was < 0.12 µM (active). The AC50 [7] was 1.79 µM (active).
In the case of `O=C1CCCN1CCCNC(=S)Nc1ccc(Nc2ccccc2)cc1`, the IC50 [8] is reported as 18.7 µM (active).
With `CCN(CC)c1ccc(NC(=O)COC(=O)c2ccc3ccccc3n2)cc1` the IC50 [8] was 48.2 µM (active).
With `CCOC(=O)C1=C(C)N=C(C)/C(=C(/O)OCC)C1C(=O)OCC(=O)N(C)C1CCS(=O)(=O)C1` (centres undefined) the EC50 [1] was > 350 µM (not active) and the EC50 [2] was > 350 µM (not active).
In the case of `Cc1ccc(N(C)S(=O)(=O)c2ccc(-c3cc(C)no3)s2)cc1`, the EC50 [1] is reported as > 350 µM (not active) and the EC50 [2] is reported as > 350 µM (not active).
For `CC(C)C1Cc2c(sc3c2c(=O)n(-c2ccccc2)c2n[nH]c(=S)n32)CO1` (centres undefined), the IC50 [8] was 29.5 µM (active).
In the case of `Cc1cccc(C(=N)NOC(=O)c2ccoc2C)c1`, the EC50 [1] is reported as > 350 µM (not active), the EC50 [9] is reported as 3.65 µM (active) and the EC50 [10] is reported as 3.25 µM (active). The EC50 [2] was 7.1 µM (active).
For `COc1cc(/C=C2\C(=N)N3N=C(CC(=O)N4CCCCC4)SC3=NC2=O)ccc1O`, the IC50 [8] was 22.5 µM (active).
In the case of `CCOc1ccc(NCc2cccn2-c2nnc(N3CCC(C(=O)NCCCN4CCCCC4CC)CC3)s2)cc1` (centres undefined), the IC50 [8] is reported as 11.7 µM (active).
For `O=C(O)Cc1csc(COc2ccccc2)n1`, the IC50 [11] was > 100 µM (not active).
For `CCN1CCN(C2=C(Cl)C(=O)N(c3cccc(OC)c3)C2=O)CC1`, the IC50 [11] was > 50 µM (inconclusive).
With `Cc1ccc(-c2nn(-c3ccccc3)cc2CSC(=N)N)cc1` the CC50 [12] was 14.9 µM (active), the EC50 [13] was > 120 µM (not active) and the EC50 [14] was > 120 µM (not active). For the same compound, the EC50 [15] was > 120 µM (not active), the EC50 [16] was 17.1 µM (active) and the EC50 [17] was 17.4 µM (active). For the same compound, the IC50 [18] was > 20 µM (inactive) and the AC50 [19] was 39.8 µM (inconclusive).
For `O=C(CN1CCCCC1)N1CCCc2ccccc21`, the EC50 [1] was > 350 µM (not active) and the EC50 [2] was > 350 µM (not active).
With `COc1cc(/C=C2\SC(Nc3ccc(Cl)c(C(=O)O)c3)=NC2=O)c(Br)c(Br)c1O` the IC50 [8] was 3.27 µM (active) and the IC50 [20] was 13.9 µM (active).
For `COc1ccc(C(CC(=O)O)C(N)=O)cc1` (centres undefined), the IC50 [11] was > 100 µM (not active).
With `COc1ccccc1/C=C1/C(=O)ON=C1C` the IC50 [3] was > 100 µM (active).
With `Cc1cc(C(C2C(=O)CC(C)(C)CC2=O)C2C(=O)CC(C)(C)CC2=O)cc(C)c1OC(F)F` the IC50 [3] was 43.5 µM (active).
In the case of `CC(=O)Nc1nc2ccccc2n1CCOc1ccccc1`, the EC50 [21] is reported as 11.3 µM (active), the EC50 [22] is reported as > 150 µM (not active) and the EC50 [16] is reported as 15.4 µM (active). The EC50 [17] was 12.7 µM (active) and the EC50 [23] was > 150 µM (not active).
With `c1csc(CCNc2ncnc3sc4c(c23)CCC4)c1` the EC50 [16] was 63.9 µM (active), the EC50 [17] was 72.7 µM (active) and the AC50 [24] was 1.7 µM (active). For the same compound, the AC50 [25] was 7.76 µM (active) and the AC50 [26] was 0.988 µM (active).
In the case of `COc1cc(/C=N/NC(=O)c2cccc(S(=O)(=O)N3CCCC3)c2)ccc1O`, the IC50 [8] is reported as 9.24 µM (active) and the AC50 [27] is reported as 1.79 µM (active).
In the case of `CC/N=c1\scc(C)n1/N=C/c1cc(Br)c(O)c(Br)c1`, the CC50 [12] is reported as 13.3 µM (active) and the IC50 [8] is reported as 21.6 µM (active).
In the case of `Cc1n[nH]c(O)c1C(c1ccc(-c2ccc(Cl)c(C(=O)O)c2)o1)c1c(O)n[nH]c1C`, the IC50 [3] is reported as > 100 µM (active).
In the case of `COc1cc(/C=N/NC(=O)c2cc(C3CC3)[nH]n2)ccc1O`, the IC50 [8] is reported as 7.28 µM (active) and the AC50 [27] is reported as 1.74 µM (active).

Source: ChEMBL document CHEMBL1201862, “PubChem BioAssay data set” (2004)
